The values below come from US20200323962A1, “LIPOPHILIC PEPTIDE PRODRUGS” (YISSUM RESEARCH DEVELOPMENT COMPANY OF THE HEBREW …, priority 2017, published 2020).

Where two headings read alike, the source gives them in different places. Marks after values point to notes of the source that are not given here. *1 amine or outer side, *2 acyl side, *3 side chain or, on linkers, in order; H or OH if unused. Where a SMILES comes first, the peptide text is derived from it. Bridges are numbered along the chain shown (N, C = ends). Where no end group is shown, it is not given here. [ ]: non-standard residue; d: D form. Arg(ω,ω'-(C6H13OCO)2) = CCCCCCOC(=O)N=C(NCCC[C@H](N)C(=O)O)NC(=O)OCCCCCC; Phe(Nα-(CH2)3CO) = O=C([C@H](Cc1ccccc1)N(CCCC(=O)[*:3])[*:1])[*:2]; N(2-aminoethyl)Phe = O=C([C@H](Cc1ccccc1)N(CCN[*:3])[*:1])[*:2] Bounds are passed on as bounds.

The conditions of series [1]: for Mass retention / Permeability, Mean / Permeability, replicate 1 / Permeability, replicate 2 / Permeability, replicate 3: PAMPA, pH 7.4. (PAMPA measures passive passage across an artificial lipid membrane.)
Excerpt: The Parallel Artificial Membrane Permeability Assay (PAMPA) is used as an in vitro model of passive, transcellular permeation. […] This assay also allows evaluation of permeability over a large pH range, which is valuable for a preliminary understanding of how orally delivered compounds might be absorbed across the entire gastrointestinal tract. […] Depending upon the types of lipids used and other experimental conditions, PAMPA may be designed to model absorption in gastrointestinal tract (PAMPA-GIT), blood-brain barrier penetration (PAMPA-BBB) or skin penetration (Skin PAMPA). All steps of the PAMPA were carried out according to pION Inc. PAMPA Explorer™ Manual. The main principle of the assay is the incubation of compound in donor chamber (a well in Donor Plate) with aqueous buffer, which is separated from acceptor chamber (a well in Acceptor Plate) with another buffer by a phospholipid or hydrocarbon membrane fixed on a filter support. After the test, concentrations in the corresponding donor and acceptor wells are measured and permeability is calculated. GIT model was simulated using GIT-0 phospholipid mix. […] All compounds were tested in triplicates. Prisma HT buffer (pH 7.4) containing 50 μM test compounds and 0.5% DMSO were added into the Donor Plate wells. Acceptor Sink buffer was added into each well of the acceptor plate. Incubation was done at room temperature for 4 hours without stirring. […] Compounds with low UV-Vis signal were detected by LC-MS/MS method. Then the apparent permeability coefficient was calculated.
Series [2] in a line: in vitro. The settings on record: human; for efflux ratio at 90 min, 10 µM: Caco-2, pH 7.4, Net efflux (quotient of Papp (BA) to Papp (AB)); for Papp A→B at 90 min, 10 μM: Caco-2, pH 7.4, Papp (AB); for Papp B→A at 90 min, 10 μM: Caco-2, pH 7.4, Papp (BA).
The conditions of series [3]: pH 7.4, LogD.
Description: Log D. Determination of distribution coefficients were performed as follows:
Incubations were carried out in Eppendorf-type polypropylene microtubes in triplicates. […] Phase separation was assured by centrifugation for 2 min at 6000 rpm. The octanol phase was diluted 100-fold with 40% acetonitrile, and aqueous phase was analyzed without dilution. The samples (both phases) were analyzed using HPLC system coupled with tandem mass spectrometer.
For series [4] the following is noted: for Papp A→B: Caco-2, Papp (AB); for Papp B→A: Caco-2, Papp (BA).
Series [5] is described as follows: Caco-2 permeability study (Examples 1-4). A general note: Caco-2 monolayers are a common model of the intestinal barrier.
Description: (§1) The culture growth medium consisted of DMEM supplemented with 10% heat-inactivated FBS, 1% MEM-NEAA, 2 mM 1-glutamine, 1 mM sodium pyruvate, 50,000 units Penicillin G Sodium and 50 mg Streptomycin Sulfate (Biological Industries). The medium was replaced every other day.
(§2) Cells (passage 55-60) were seeded at density of 25×10^5 cells/cm^2 on untreated culture inserts of polycarbonate membrane with 0.4 μm pores and surface area of 1.1 cm^2. Culture inserts containing Caco-2 monolayer were placed in 12 mm transwell plates (Corning). Culture medium was replaced every other day. Transepithelial Electrical Resistance (TEER) values were measured by Millicell ERS-2 System (Millipore) a week after seeding up to experiment day (21-23 days) to ensure proliferation and differentiation of the cells. When the cells were fully differentiated and TEER values became stable (200-500 Ω·cm^2). The TEER values were compared to control inserts containing only the medium.
(§3) The experiment was initiated by replacing the medium from both sides by apical (600 μl) and basolateral (1500 μl) buffers, both warmed to 37° C. The Cells were incubated with the buffers solutions for 30 min at 37° C. on a shaker (100 cycles/min). […] 50 μl samples were taken from the apical side immediately at the beginning of the experiment, resulting in 550 μl apical volume during the experiment.
(§4) Permeability Coefficient (Papp) for each compound was calculated from the linear plot of drug accumulated versus time, using the following equation:
(§5) Where dq/dt is steady state appearance rate of the compound on the receiver side, C0 is the initial concentration of the drug on the donor side, and A is the exposed tissue surface area (1.1 cm^2).
(§6) Transport studies were performed through the Caco-2 monolayer mounted in an Ussing-type chamber set-up with continuous trans-epithelial electrical resistance (TEER) measurements to assure TEER between 800 and 1200 Ω*cm^2. HBSS supplemented with 10 mM IVIES and adjusted to pH 6.5 were used as transport medium in the donor compartment and pH 7.4 in the acceptor compartment. The donor solution contained the test compound.
(§7) Permeability mechanism of compounds is studied by evaluating the Papp of a compound from the apical to the basolateral (A-to-B) membrane and its Papp from the basolateral to the apical membrane (B-to-A). The A-to-B assay simulates passive and transporter-mediated permeability. The B-to-A assay is essential complementary experiment indicative of the activity of P-gp. The ratio of the A-to-B and B-to A Papps (efflux ratio) is calculated to determine the permeability mechanism.
Series [6] can be described thus: in vitro. The settings on record: human, Caco-2, Papp AB.
Description: as §1, §2, §3, §4, §5, §6, §7
The subject of series [7] is somatostatin receptors. The settings on record: SSTR subtypes; cited from earlier work.
Series [8] deals with amylase and lipase release from the pancreas. The settings on record: bombesin- and caerulein-induced; cited from earlier work.
The target of series [9] is T1, human αvβ6-Integrin (Homo sapiens, UniProt P06756+P18564, DEL708-788).
T1 construct: purchased R&D
Briefly: Integrin binding assay (solid-phase), αvβ6.
Description: (1) 0.4 μg/mL; LAP (TGF-3), R&D.
(2) 0.5 μg/mL, human αvβ6-Integrin, R&D.

In series [10] the test system is Caco-2 cells. In words: Caco-2 permeability study (Examples 1-4). Conditions: for Caco-2 permeability: qualitative.
Description: as §1, §2, §3, §4, §5, §6, §7
Series [11] deals with T2, human αvβ5-integrin (Homo sapiens, UniProt P06756+P18084).
T2 construct: purchased Millipore
In words: Integrin binding assay (solid-phase), αvβ5.
Description: (1) 5.0 μg/mL; human vitronectin, Millipore.
(2) 3.0 μg/mL, human αvβ5-integrin, Millipore.

Series [12] has as its target human α5β1-integrin (Homo sapiens, UniProt P05556+P08648, DEL729-798). In words: biochemical.
Setting [13] is: pH 7.4 (mean in parentheses below reported bound).

T1 sequence (P06756 31-992 limits assumed, stated change not applied): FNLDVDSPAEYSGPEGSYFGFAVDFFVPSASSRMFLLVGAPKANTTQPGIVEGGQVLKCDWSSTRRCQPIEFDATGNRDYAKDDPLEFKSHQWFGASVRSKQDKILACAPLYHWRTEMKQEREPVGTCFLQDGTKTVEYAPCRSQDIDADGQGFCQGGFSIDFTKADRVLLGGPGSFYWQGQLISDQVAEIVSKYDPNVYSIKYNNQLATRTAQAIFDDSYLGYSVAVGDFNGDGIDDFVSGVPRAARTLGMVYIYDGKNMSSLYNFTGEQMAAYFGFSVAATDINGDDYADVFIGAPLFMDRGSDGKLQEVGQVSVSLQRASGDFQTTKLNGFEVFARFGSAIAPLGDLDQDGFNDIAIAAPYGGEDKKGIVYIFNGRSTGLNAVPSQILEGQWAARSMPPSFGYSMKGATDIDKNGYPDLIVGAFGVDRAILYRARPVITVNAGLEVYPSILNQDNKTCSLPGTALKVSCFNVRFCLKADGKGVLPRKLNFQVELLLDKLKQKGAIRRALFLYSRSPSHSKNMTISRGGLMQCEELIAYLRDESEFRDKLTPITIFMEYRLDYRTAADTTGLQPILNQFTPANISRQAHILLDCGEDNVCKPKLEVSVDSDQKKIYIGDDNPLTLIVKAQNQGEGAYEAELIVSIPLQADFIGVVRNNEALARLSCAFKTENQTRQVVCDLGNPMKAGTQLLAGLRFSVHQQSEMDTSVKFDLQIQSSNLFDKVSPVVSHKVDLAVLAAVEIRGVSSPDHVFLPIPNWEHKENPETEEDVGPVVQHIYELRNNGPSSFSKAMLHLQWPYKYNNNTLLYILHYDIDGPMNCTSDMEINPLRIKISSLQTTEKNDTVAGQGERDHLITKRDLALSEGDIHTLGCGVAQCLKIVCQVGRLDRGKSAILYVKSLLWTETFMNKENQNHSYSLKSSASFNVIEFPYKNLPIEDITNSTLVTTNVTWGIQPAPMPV
T1 sequence (P18564 22-707 limits assumed, stated change not applied): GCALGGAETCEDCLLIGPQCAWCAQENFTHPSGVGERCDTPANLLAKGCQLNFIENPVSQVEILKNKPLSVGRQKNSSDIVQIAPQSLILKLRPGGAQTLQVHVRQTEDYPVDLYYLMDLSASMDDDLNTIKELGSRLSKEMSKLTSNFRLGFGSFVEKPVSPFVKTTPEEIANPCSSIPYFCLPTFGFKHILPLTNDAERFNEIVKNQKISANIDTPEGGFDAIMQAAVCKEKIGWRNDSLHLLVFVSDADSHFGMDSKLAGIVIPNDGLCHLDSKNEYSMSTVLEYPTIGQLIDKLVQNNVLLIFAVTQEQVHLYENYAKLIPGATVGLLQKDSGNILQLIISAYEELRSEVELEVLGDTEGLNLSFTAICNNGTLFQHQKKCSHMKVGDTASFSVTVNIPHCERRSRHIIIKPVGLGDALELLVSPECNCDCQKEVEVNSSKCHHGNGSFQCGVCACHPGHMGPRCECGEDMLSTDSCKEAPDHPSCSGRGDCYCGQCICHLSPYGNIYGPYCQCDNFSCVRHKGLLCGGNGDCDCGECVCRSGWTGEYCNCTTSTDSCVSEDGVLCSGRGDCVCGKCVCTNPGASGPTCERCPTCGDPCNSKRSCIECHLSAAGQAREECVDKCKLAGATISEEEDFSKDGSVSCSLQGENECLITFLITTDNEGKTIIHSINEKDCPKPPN
Chain of human α5β1-integrin (P08648 42-995 limits assumed, stated change not applied): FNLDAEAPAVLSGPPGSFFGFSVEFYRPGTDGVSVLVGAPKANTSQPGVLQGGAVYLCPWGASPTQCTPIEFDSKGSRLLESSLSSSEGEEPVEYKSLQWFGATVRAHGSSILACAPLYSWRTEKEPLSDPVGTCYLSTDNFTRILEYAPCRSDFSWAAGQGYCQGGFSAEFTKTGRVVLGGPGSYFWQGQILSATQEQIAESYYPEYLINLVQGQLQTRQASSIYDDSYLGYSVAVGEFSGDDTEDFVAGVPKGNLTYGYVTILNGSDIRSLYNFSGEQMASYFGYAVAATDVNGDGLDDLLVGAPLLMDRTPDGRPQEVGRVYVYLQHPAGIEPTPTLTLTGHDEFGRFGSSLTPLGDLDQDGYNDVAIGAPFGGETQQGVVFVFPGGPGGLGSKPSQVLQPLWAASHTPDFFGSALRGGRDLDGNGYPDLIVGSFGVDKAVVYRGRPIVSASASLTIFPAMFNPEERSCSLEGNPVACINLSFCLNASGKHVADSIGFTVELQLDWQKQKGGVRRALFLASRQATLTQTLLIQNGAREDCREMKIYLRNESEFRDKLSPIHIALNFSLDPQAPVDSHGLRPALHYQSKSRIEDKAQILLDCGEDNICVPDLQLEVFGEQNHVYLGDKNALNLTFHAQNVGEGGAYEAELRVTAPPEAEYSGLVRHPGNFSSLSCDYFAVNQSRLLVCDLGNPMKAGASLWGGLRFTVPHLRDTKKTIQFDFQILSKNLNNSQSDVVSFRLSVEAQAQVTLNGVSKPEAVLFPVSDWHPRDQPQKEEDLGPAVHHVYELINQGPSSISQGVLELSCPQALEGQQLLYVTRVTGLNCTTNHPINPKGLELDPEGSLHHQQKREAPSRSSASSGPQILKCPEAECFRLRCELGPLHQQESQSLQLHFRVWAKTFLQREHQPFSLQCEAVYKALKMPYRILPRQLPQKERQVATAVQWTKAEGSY
Chain of human α5β1-integrin (P05556 21-728 limits assumed, stated change not applied): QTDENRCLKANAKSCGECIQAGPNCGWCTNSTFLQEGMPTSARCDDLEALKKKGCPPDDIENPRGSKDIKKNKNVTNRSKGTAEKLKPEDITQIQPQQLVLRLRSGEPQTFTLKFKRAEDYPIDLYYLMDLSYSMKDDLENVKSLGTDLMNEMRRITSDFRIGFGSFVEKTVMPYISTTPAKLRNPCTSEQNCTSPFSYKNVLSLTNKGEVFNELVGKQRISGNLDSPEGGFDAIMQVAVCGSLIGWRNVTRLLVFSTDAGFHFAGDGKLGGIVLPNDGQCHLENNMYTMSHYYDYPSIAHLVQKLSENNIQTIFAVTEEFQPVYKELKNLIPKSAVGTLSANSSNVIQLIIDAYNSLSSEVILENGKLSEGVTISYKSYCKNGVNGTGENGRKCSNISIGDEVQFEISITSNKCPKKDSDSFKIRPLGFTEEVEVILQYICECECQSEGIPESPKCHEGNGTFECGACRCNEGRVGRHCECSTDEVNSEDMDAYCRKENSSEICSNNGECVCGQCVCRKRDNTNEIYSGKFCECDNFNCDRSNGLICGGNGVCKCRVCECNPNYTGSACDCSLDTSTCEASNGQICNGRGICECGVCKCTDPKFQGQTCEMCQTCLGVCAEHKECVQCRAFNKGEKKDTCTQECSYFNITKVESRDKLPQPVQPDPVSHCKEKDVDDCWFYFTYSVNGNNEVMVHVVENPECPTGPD

`CC(C)C[C@@H]1NC(=O)CNC(=O)[C@@H]2CCCN2C(=O)[C@@H]2CCCN2C(=O)[C@H](CC(C)C)NC(=O)[C@H](CC(=O)O)NC(=O)CNC(=O)[C@H](CCCNC(=N)N)NC1=O` [FRX068] (cyclo(RGDLPPGL)): in series [1], the Mass retention came out at 2%; the “Permeability, Mean” value was less than −7 Log10[10^−6 cm/s]; the “Permeability, replicate 1” value is less than −7 Log10[10^−6 cm/s]; the “Permeability, replicate 2” value was less than −7 Log10[10^−6 cm/s]. Besides, the “Permeability, replicate 3” value in series [1] was less than −7 Log10[10^−6 cm/s]. In [2], the efflux ratio at 90 min, 10 µM is 1.1. This molecule came in with a logD in series [3] (pH 7.4 (mean / reported value)) of less than -1. Moreover, the logD in series [3] (setting [13]) is -1.49. In series [4] (Mean), the Papp A→B turned out to be 0.3 ×10⁻⁶ cm/s and the basolateral-to-apical permeability (Papp B→A) was determined as 0.3 ×10⁻⁶ cm/s. In series [4] (replicate 1), the Papp A→B was determined as 0.3 ×10⁻⁶ cm/s and the apparent permeability from basolateral to apical (Papp B→A) amounted to 0.3 ×10⁻⁶ cm/s. Also, in series [4] (replicate 2), the Papp A→B came out at 0.2 ×10⁻⁶ cm/s and the Papp B→A was 0.3 ×10⁻⁶ cm/s. In [4] (replicate 3), this molecule had a Papp A→B of 0.2 ×10⁻⁶ cm/s and a Papp B→A of 0.3 ×10⁻⁶ cm/s.
`CNC(=C[N+](=O)[O-])NCCSCc1ccc(CN(C)C)o1` [Ranitidine, reference compound] came in with a Mass retention in [1] (4 h, 50 μM) of 21%. In [1], the “Permeability, Mean” value was <−7* Log10[10^−6 cm/s]; the “Permeability, replicate 1” value is less than −7 Log10[10^−6 cm/s]; the “Permeability, replicate 2” value is less than −7 Log10[10^−6 cm/s]; the “Permeability, replicate 3” value was less than −7 Log10[10^−6 cm/s].
In the case of `CCCCCCOC(=O)N=C(NCCC[C@@H]1NC(=O)[C@@H](C(C)C)N(C)C(=O)[C@H](C)N(C)C(=O)[C@H](C)NC(=O)[C@H](CC(=O)OC)NC(=O)CNC1=O)NC(=O)OCCCCCC` [peptide 29P, c(*vR(Hoc)2GD(OMe)A*A)], the efflux ratio in [5] (Caco-2) came out at 13. Also, the Papp A→B worked out at 0.8 ×10⁻⁶ cm/s in [5] (Caco-2, Caco-2 Papp A-to-B, A-to-B, text values (FIGS. 4, 5, 7, 17-20), unit inferred) and 0.82 ± 0.13 ×10⁻⁶ cm/s in series [5] (Caco-2, Papp AB, Table 3, n = 3). Also, the Papp B→A in series [5] (Caco-2, Caco-2 Papp B-to-A, B-to-A, text values (FIGS. 5, 18, 20), unit inferred) was 10.6 ×10⁻⁶ cm/s; in series [5] (Caco-2, Papp BA, Table 3, n = 3) it was 10.7 ± 2.14 ×10⁻⁶ cm/s.
On to `COCCc1ccc(OCC(O)CNC(C)C)cc1` (stereo not drawn) [metoprolol], for which the Papp A→B at 150 min in [6] is 1.89 ± 0.11 ×10⁻⁶ cm/s.
In the case of “PTR-3046: backbone cyclic somatostatin analog (SEQ ID NO: 28) ([N(2-aminoethyl)Phe]Y[dW]KV[Phe(Nα-(CH2)3CO)]T-NH2; bridge 1-6; also: backbone cyclisation between building units)”, the “somatostatin receptor selectivity” value in [7] is listed as “selective toward the SSTR5”. Also, the “inhibition of amylase and lipase release” value in [8] is “inhibits bombesin- and caerulein-induced amylase and lipase release from the pancreas”.
In the case of `CC(C)NCC(O)COc1cccc2ccccc12` (stereo not drawn) [Propranolol], the efflux ratio at 90 min, 10 µM in series [2] was found to be 0.8. The Papp A→B at 90 min, 10 μM was 18.1 ×10⁻⁶ cm/s in series [2] (Mean), 14.9 ×10⁻⁶ cm/s in series [2] (replicate 1), 24.1 ×10⁻⁶ cm/s in series [2] (replicate 2) and 15.3 ×10⁻⁶ cm/s in series [2] (replicate 3). Moreover, the Papp B→A at 90 min, 10 μM in series [2] (Mean) was 15.3 ×10⁻⁶ cm/s; in series [2] (replicate 2) it was 15.3 ×10⁻⁶ cm/s; in [2] (replicate 3), 17 ×10⁻⁶ cm/s.
Take `C[C@@H]1NC(=O)[C@H](C)N(C)C(=O)[C@H](C)NC(=O)[C@H](CC(=O)O)N(C)C(=O)CNC(=O)[C@@H](CCCNC(=N)N)NC1=O` [compound 17, c(rG*DA*AA)]: the IC50 in [9] was greater than 10 µM; in [11] it was greater than 5 µM; in series [12] it was greater than 10 µM. Moreover, in series [10], the “Caco-2 permeability” value is recorded as “significant lower permeability”.
As for `C[C@@H]1NC(=O)[C@H](CC(=O)O)NC(=O)CNC(=O)[C@@H](CCCNC(=N)N)NC(=O)[C@H](C)N(C)C(=O)[C@H](C)N(C)C1=O` [compound 23, c(rGDA*A*A)], in series [10] (Table 3, n = 3), the “Papp AB” value came to 0.61 ± 0.09 cm/s × 10^6 and the “Papp BA” value worked out at 1.34 ± 0.03 cm/s × 10^6. The “Caco-2 permeability” value in [10] is on record as “significant lower permeability”.
For `CCCCCCOC(=O)N=C(N)NCCC[C@@H]1NC(=O)[C@@H](C(C)C)N(C)C(=O)[C@H](C)N(C)C(=O)[C@H](C)NC(=O)[C@H](CC(=O)OC)NC(=O)CNC1=O` [#29P-Hoc], in series [1], the “PAMPA permeability” value was “low permeability”; the Mass retention was determined as 10%; the “Permeability, Mean” value is less than −7 Log10[10^−6 cm/s]; the “Permeability, replicate 1” value is less than −7 Log10[10^−6 cm/s]. Also, in series [1], the “Permeability, replicate 2” value is less than −7 Log10[10^−6 cm/s] and the “Permeability, replicate 3” value is less than −7 Log10[10^−6 cm/s].
As to `C=C[C@H]1C[N@@]2CC[C@H]1C[C@@H]2[C@@H](O)c1ccnc2ccc(OC)cc12` [Quinidine, reference compound], in [1] (4 h, 50 μM), the Mass retention turned out to be 56%. Also, in series [1], the “Permeability, Mean” value was −4.5* Log10[10^−6 cm/s]; the “Permeability, replicate 1” value is −4.6 Log10[10^−6 cm/s]; the “Permeability, replicate 2” value is −4.5 Log10[10^−6 cm/s]; the “Permeability, replicate 3” value was −4.5 Log10[10^−6 cm/s].
On to `CCCCCCOC(=O)N=C(NCCC[C@@H]1NC(=O)[C@H](C(C)C)N(C)C(=O)[C@@H](Cc2ccccc2)NC(=O)[C@H](CC(=O)OC)NC(=O)CNC1=O)NC(=O)OCCCCCC` [Cil.-P, c(f*VR(Hoc)2 GD)], for which, in series [1], the “PAMPA permeability” value is given as “does not enhance the permeability”; the Mass retention turned out to be 36%; the “Permeability, Mean” value was −6.5 Log10[10^−6 cm/s]; the “Permeability, replicate 1” value was −8.1 Log10[10^−6 cm/s]. Further, in series [1], the “Permeability, replicate 2” value is −6.6 Log10[10^−6 cm/s] and the “Permeability, replicate 3” value was −6.5 Log10[10^−6 cm/s].
Turning to `C[C@@H]1NC(=O)[C@H](CC(=O)O)NC(=O)CNC(=O)[C@@H](CCCNC(=N)N)N(C)C(=O)[C@H](Cc2ccccc2)NC(=O)[C@H](C)N(C)C1=O` [compound 33, c(*rGDA*AF)], the IC50 in [9] (Table 1, read-out: αvβ6, IC50) was determined as 0.025 ± 0.003 µM.
In the case of `CC(C)C[C@@H]1NC(=O)[C@H](CC(=O)O)NC(=O)CNC(=O)[C@H](CCCNC(=N)N)NC(=O)[C@H](Cc2ccccc2)NC(=O)[C@@H]2CCCN2C(=O)[C@@H]2CCCN2C(=O)[C@H](CC(C)C)NC(=O)[C@H](C)NC1=O` [OM1186] (cyclo(RGDLALPPF)), in series [1], the Mass retention is reported as 13%; the “Permeability, Mean” value is less than −7 Log10[10^−6 cm/s]; the “Permeability, replicate 1” value was less than −7 Log10[10^−6 cm/s]; the “Permeability, replicate 2” value is less than −7 Log10[10^−6 cm/s]. In series [1], the “Permeability, replicate 3” value was less than −7 Log10[10^−6 cm/s]. For the same molecule, in series [2], the efflux ratio at 90 min, 10 µM is 0.6. The molecule further showed a log distribution coefficient (logD) in [3] (pH 7.4 (mean / reported value)) of -0.19. In series [4] (Mean), this molecule gave a Papp A→B of less than 0.3 ×10⁻⁶ cm/s and a Papp B→A of 0.2 ×10⁻⁶ cm/s. Besides, in [4] (replicate 1), the Papp A→B was less than 0.6 ×10⁻⁶ cm/s and the Papp B→A is 0.1 ×10⁻⁶ cm/s. In [4] (replicate 2), this molecule came in with a Papp A→B of less than 0.3 ×10⁻⁶ cm/s and a Papp B→A of 0.2 ×10⁻⁶ cm/s. In addition, in [4] (replicate 3), the Papp B→A came to 0.3 ×10⁻⁶ cm/s.
In the case of `CCCCCCOC(=O)N=C(NCCC[C@@H]1NC(=O)[C@H](Cc2ccccc2)NC(=O)[C@@H]2CCCN2C(=O)[C@@H]2CCCN2C(=O)[C@H](CC(C)C)NC(=O)[C@H](C)NC(=O)[C@H](CC(C)C)NC(=O)[C@H](CC(=O)OC)NC(=O)CNC1=O)NC(=O)OCCCCCC` [AR372] (cyclo(ALPPF[Arg(ω,ω'-(C6H13OCO)2)]GD(OMe)L)), in [1], the “PAMPA permeability” value is >−5 to >−6; the Mass retention is 80%; the “Permeability, Mean” value was −5.9 Log10[10^−6 cm/s]; the “Permeability, replicate 1” value was −6.2 Log10[10^−6 cm/s]. Besides, in series [1], the “Permeability, replicate 2” value was −5.7 Log10[10^−6 cm/s] and the “Permeability, replicate 3” value is −5.7 Log10[10^−6 cm/s]. The logD in series [3] (pH 7.4 (mean / reported value)) is greater than 4.5. In addition, in series [3] (setting [13]), the logD is 4.85. Further, in series [3] (pH 7.4 (single replicate)), the logD worked out at 4.8. Also, in series [4] (Mean), the Papp A→B was less than 0.01 ×10⁻⁶ cm/s and the Papp B→A came to 0.4 ×10⁻⁶ cm/s. Further, in series [4] (replicate 1), the Papp A→B was less than 0.01 ×10⁻⁶ cm/s and the Papp B→A is 0.5 ×10⁻⁶ cm/s. In [4] (replicate 2), this molecule yielded a Papp A→B of less than 0.01 ×10⁻⁶ cm/s and a Papp B→A of 0.5 ×10⁻⁶ cm/s. In series [4] (replicate 3), this molecule had a Papp A→B of less than 0.01 ×10⁻⁶ cm/s and a Papp B→A of 0.3 ×10⁻⁶ cm/s.

As a reminder, the efflux ratio is the permeability from basolateral to apical divided by that in the opposite direction, in the common usage. Usually logD stands for the decadic logarithm of the distribution of all forms, ionised or not, between an organic phase and buffer at a given pH. Usually Papp A→B stands for the apparent permeability from the apical to the basolateral side of a cell layer. Lower therefore signals slow passage. The Papp B→A is the apparent permeability from the basolateral to the apical side of a cell layer. The term IC50 denotes the concentration needed to halve the response being measured.
